The source of these data is patent US20150344466A1 (SUMITOMO CHEMICAL COMPANY, LIMITED, priority 2013, published 2015).

Molecules are shown by their SMILES.

The subject of the experiment is Culex pipiens pallens. Briefly: Knockdown spray test on adult Culex pipiens pallens (Test Example 4). It is filed as in vivo. The note with it: topical, 0.25 h, active ingredient 0.1% w/v, 0.5 ml sprayed, within 15 minutes, read-out: knockdown rate of the test insects within 15 minutes. The procedure: Ten adult Culex pipiens pallens were released in a polyethylene cup (bottom diameter: 10.6 cm), and the cup was covered with a 16-mesh nylon gauze. The polyethylene cup was placed on the bottom of a test chamber (bottom: 46 cm×46 cm, height: 70 cm). From a height of 30 cm above the upper surface of the polyethylene cup, 0.5 ml of the test drug solution was sprayed using a spray gun (a spraying pressure of 0.4 kg/cm^2). Immediately after spraying, the cup was taken out from the test chamber, and after 2 minutes, 5 minutes and 15 minutes, the number of knocked-down insects was counted to obtain a knockdown rate. The knockdown rate was calculated by the following equation.
Knockdown Rate (%)=(Number of Knocked-down Insects/Number of Tested Insects)×100

With `O=C(NCC1COCO1)c1cc(COCc2ccccc2)on1` (stereo not drawn) [(35), N-[4-(1,3-dioxolyl)methyl]-5-benzyloxymethylisoxazole-3-carboxamide], the pest or weed control at 0.1 % strength was no less than 80%.

Consider `O=C(NC1CSC1)c1cc(COCc2ccccc2)on1` [(40), N-(thietan-3-yl)-5-benzyloxymethylisoxazole-3-carboxamide], for which the pest or weed control at 0.1 % strength is no less than 80%.

With `O=C(NCC1CCOC1)c1ncc(COc2ccccc2)s1` (stereo not drawn) [(47), N-(tetrahydrofuran-3-ylmethyl)-5-phenoxymethythiazole-2-carboxamide], the pest or weed control at 0.1 % strength was no less than 80%.

`O=C(NCC1CCOC1)c1ncc(COCc2ccccc2)s1` (stereo not drawn) [(48), N-(tetrahydrofuran-3-ylmethyl)-5-benzyloxymethythiazole-2-carboxamide]: the pest or weed control at 0.1 % strength was no less than 80%.

Regarding `O=C(NCC1CCOC1)c1cc(COCc2ccsc2)on1` (stereo not drawn) [(107), N-(tetrahydrofuran-3-ylmethyl)-5-(thiophen-3-ylmethoxymethyl)isoxazole-3-carboxamide], the pest or weed control at 0.1 % strength is no less than 80%.

Turning to `O=C(NCC1CCOCC1)c1cc(COCc2ccsc2)on1` [(108), N-(tetrahydropyran-4-ylmethyl)-5-(thiophen-3-ylmethoxymethyl)isoxazole-3-carboxamide], the pest or weed control at 0.1 % strength was no less than 80%.

For the compound `O=C(NCC1CCOC1)c1cc(COCc2ccc(Oc3ccccc3)cc2)on1` (stereo not drawn) [(117), N-(tetrahydrofuran-3-ylmethyl)-5-(4-phenoxybenzyloxymethyl) isoxazole-3-carboxamide], the pest or weed control at 0.1 % strength was no less than 80%.

Take `Cc1c(COCc2cc(C(=O)NCC3CCOC3)no2)cccc1-c1ccccc1` (stereo not drawn) [(123), N-(tetrahydrofuran-3-ylmethyl)-5-(2-methyl-3-phenylbenzyloxymethyl)isoxazole-3-carboxamide]: the pest or weed control at 0.1 % strength is no less than 80%.

For `CC(OCc1cc(C(=O)NCC2CCOC2)no1)c1ccccc1` (stereo not drawn) [(125), N-(tetrahydrofuran-3-ylmethyl)-5-[(1-phenylethyl)oxymethyl]isoxazole-3-carboxamide], the pest or weed control at 0.1 % strength was no less than 80%.

`O=C(NCC1CCOC1)c1cc(COCCCCc2ccccc2)on1` (stereo not drawn) [(135), N-(tetrahydrofuran-3-ylmethyl)-5-(4-phenylbutoxymethyl)isoxazole-3-carboxylic acid-3-carboxamide]: the pest or weed control at 0.1 % strength was no less than 80%.

With `O=C(NCC1CCOCC1)c1cc(COCCCCc2ccccc2)on1` [(136), N-(tetrahydropyran-4-ylmethyl)-5-(4-phenylbutoxymethyl)isoxazole-3-carboxamide], the pest or weed control at 0.1 % strength is no less than 80%.

For the compound `O=C(NCC1CCOC1)c1cc(COCCCCCc2ccccc2)on1` (stereo not drawn) [(137), N-(tetrahydrofuran-3-ylmethyl)-5-(5-phenylpentyloxymethyl)isoxazole-3-carboxylic acid-3-carboxamide], the pest or weed control at 0.1 % strength was no less than 80%.

On to `O=C(NCC1CCOCC1)c1cc(COCCCCCc2ccccc2)on1` [(138), N-(tetrahydropyran-4-ylmethyl)-5-(5-phenylpentyloymethyl)isoxazole-3-carboxamide], for which the pest or weed control at 0.1 % strength was no less than 80%.

For the compound `O=C(NCC1CCOC1)c1cc(CCCOc2ccccc2)on1` (stereo not drawn) [(145), N-(tetrahydrofuran-3-ylmethyl)-5-(3-phenoxypropyl)isoxazole-3-carboxamide], the pest or weed control at 0.1 % strength was no less than 80%.

As for `O=C(NCC1CCOC1)c1cc(CCCCCOc2ccccc2)on1` (stereo not drawn) [(147), N1-(tetrahydrofuran-3-ylmethyl)-5-(5-phenoxypentyl)isoxazole-3-carboxamide], the pest or weed control at 0.1 % strength is no less than 80%.

As to `O=C(NCC1CCOC1)c1cc(CCCCCCOc2ccccc2)on1` (stereo not drawn) [(148), N-(tetrahydrofuran-3-ylmethyl)-5-(6-phenoxyhexyl)isoxazole-3-carboxamide], the pest or weed control at 0.1 % strength was no less than 80%.

In the case of `O=C(NCC1CCOC1)c1cc(Cc2cc3ccccc3s2)on1` (stereo not drawn) [(161), N-(tetrahydrofuran-3-ylmethyl)-5-(benzo[b]thiophen-2-ylmethy)isoxazole-3-carboxamide], the pest or weed control at 0.1 % strength was no less than 80%.

As for `O=C(NCC1CCOC1)c1cc(Cc2ccc(Oc3ccccc3)cc2)on1` (stereo not drawn) [(162), N-(tetrahydrofuran-3-ylmethyl)-5-(4-phenoxybenzyl)isoxazole-3-carboxamide], the pest or weed control at 0.1 % strength is no less than 80%.

In the case of `O=C(NCC1CCOC1)c1cc(Cc2cccc(Oc3ccccc3)c2)on1` (stereo not drawn) [(163), N-(tetrahydrofuran-3-ylmethyl)-5-(3-phenoxybenzyl)isoxazole-3-carboxamide], the pest or weed control at 0.1 % strength is no less than 80%.

On to `O=C(NCC1CCOCC1)c1cc(COc2cccc(Cl)c2)on1` [(179), N-(tetrahydropyran-4-ylmethyl)-5-(3-chlorophenoxymethyl)isoxazole-3-carboxamide], for which the pest or weed control at 0.1 % strength was no less than 80%.

Take `O=C(NCC1CCOCC1)c1cc(COc2ccc(F)cc2)on1` [(185)]: the pest or weed control at 0.1 % strength was no less than 80%.

Turning to `O=C(NCC1CCOCC1)c1cc(COc2ccc(SC(F)(F)F)cc2)on1` [(193), N-(tetrahydropyran-4-ylmethyl)-5-(4-trifluoromethylthiophenoxymethyl)isoxazole-3-carboxamide], the pest or weed control at 0.1 % strength was no less than 80%.

On to `O=C(NCC1CCOC1)c1cc(COc2cccc(SC(F)(F)F)c2)on1` (stereo not drawn) [(202), N-(tetrahydrofuran-3-ylmethyl)-5-(3-trifluoromethylthiophenoxymethyl)isoxazole-3-carboxamide], for which the pest or weed control at 0.1 % strength is no less than 80%.

For `O=C(NCC1CCOCC1)c1cc(COc2cccc(SC(F)(F)F)c2)on1` [(203), N-(tetrahydropyran-4-ylmethyl)-5-(3-trifluoromethylthiophenoxymethyl)isoxazole-3-carboxamide], the pest or weed control at 0.1 % strength was no less than 80%.

`O=C(NCC1CCOC1)c1noc(COCc2ccc3ccccc3c2)c1CO` (stereo not drawn) [(209), N-(tetrahydrofuran-3-ylmethyl)-4-hydroxymethyl-5-(2-naphthylmethoxymethyl)isoxazole-3-carboxamide]: the pest or weed control at 0.1 % strength was no less than 80%.

On to `COc1ccccc1COCc1cc(C(=O)NCC2CCOC2)no1` (stereo not drawn) [(227), N-(tetrahydrofuran-3-ylmethyl)-5-(2-methoxybenzyloxymethyl) isoxazole-3-carboxamide], for which the pest or weed control at 0.1 % strength is no less than 80%.

With `O=C(NCC1COCO1)c1cc(CCCc2ccc3ccccc3c2)on1` (stereo not drawn) [(229), N-(1,3-dioxolan-4-ylmethyl)-5-[3-(2-naphthyl)propyl]isoxazole-3-carboxamide], the pest or weed control at 0.1 % strength was no less than 80%.

With `O=C(NCC1CCOC1)c1cc(CCCc2ccc3c(c2)OC(F)(F)O3)on1` (stereo not drawn) [(231), N-(tetrahydrofuran-3-ylmethyl)-5-[5-(2,2-difluoro-1,3-benzodioxolanyl)propyl]isoxazole-3-carboxamide], the pest or weed control at 0.1 % strength was no less than 80%.

As to `O=C(NCC1COCCO1)c1cc(CCCc2ccc3c(c2)OC(F)(F)O3)on1` (stereo not drawn) [(232), N-(1,4-dioxan-2-ylmethyl)-5-[3-(5-(2,2-difluoro-1,3-benzodioxolanyl))propyl]isoxazole-3-carboxamide], the pest or weed control at 0.1 % strength was no less than 80%.

On to `O=C(NCC1COCCO1)c1cc(COCc2ccc3ccccc3c2)on1` (stereo not drawn) [(233), N-(1,4-dioxan-2-ylmethyl)-5-(2-naphthylmethoxymethyl)isoxazole-3-carboxamide], for which the pest or weed control at 0.1 % strength is no less than 80%.
